Reference: US20250051337A1 (priority 2021, published 2025)
Where two headings read alike, the source gives them in different places.

Assays:
STK3 = STK3 (Homo sapiens (Human), UniProt Q13188); experiment: ADP-Glo kinase assay, STK3; assay type: biochemical
Procedure: (§1) The STK3 kinase assay was performed in 5 μL reaction buffer containing 50 ng recombinant human STK3 protein (full length, SignalChem #S24-10G; Richmond, Canada), 250 μg/mL myelin basic protein (Sigma-Aldrich #M1891; St. Louis, MO, USA), and 50 μM ATP (Sigma-Aldrich #A7699). The STK4 kinase assay was performed in 5 μL reaction buffer containing 50 ng recombinant human STK4 protein (full length, SignalChem #S25-10G), 300 μg/mL Axltide (SignalChem #A16-58), and 50 μM ATP. […] Three experiments were performed, each in triplicate.

STK4 = STK4 (Homo sapiens (Human), UniProt Q13043); experiment: ADP-Glo kinase assay, STK4; assay type: biochemical; conditions: ADP-Glo, 50 μM ATP; read-out: STK4 IC50
Procedure: as §1

[1] = ADP-Glo, 50 μM ATP, read-out: STK3 IC50

Sequence of STK4 (Q13043 whole entry): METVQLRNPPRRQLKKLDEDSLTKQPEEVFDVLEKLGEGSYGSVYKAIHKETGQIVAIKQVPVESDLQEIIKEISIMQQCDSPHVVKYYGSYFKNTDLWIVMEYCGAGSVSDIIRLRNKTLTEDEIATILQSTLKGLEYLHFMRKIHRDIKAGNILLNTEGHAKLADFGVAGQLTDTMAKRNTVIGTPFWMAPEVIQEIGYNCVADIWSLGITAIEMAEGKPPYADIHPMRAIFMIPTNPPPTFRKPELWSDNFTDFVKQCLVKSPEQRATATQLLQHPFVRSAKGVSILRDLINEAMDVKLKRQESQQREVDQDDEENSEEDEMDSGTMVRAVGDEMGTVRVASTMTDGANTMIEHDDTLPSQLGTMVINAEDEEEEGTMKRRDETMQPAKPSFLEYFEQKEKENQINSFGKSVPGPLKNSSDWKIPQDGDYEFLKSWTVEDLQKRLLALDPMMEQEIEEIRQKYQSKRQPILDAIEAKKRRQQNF
Sequence of STK3 (Q13188 whole entry): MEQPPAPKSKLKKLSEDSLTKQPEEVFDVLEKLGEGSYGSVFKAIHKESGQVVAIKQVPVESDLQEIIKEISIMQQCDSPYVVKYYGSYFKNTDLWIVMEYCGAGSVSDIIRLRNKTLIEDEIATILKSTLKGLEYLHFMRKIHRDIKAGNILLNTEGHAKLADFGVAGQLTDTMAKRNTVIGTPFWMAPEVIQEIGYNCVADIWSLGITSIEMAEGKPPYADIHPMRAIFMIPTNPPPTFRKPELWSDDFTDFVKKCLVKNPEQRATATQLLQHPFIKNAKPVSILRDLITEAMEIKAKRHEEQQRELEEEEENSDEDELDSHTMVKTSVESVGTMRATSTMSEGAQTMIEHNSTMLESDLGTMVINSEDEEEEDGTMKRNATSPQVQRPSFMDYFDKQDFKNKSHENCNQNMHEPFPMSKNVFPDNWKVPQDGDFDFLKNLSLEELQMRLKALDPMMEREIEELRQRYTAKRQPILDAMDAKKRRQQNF

## Fc1cnc(Cl)cc1-c1c[nH]c2ncnc(N3CCOCC3)c12 [Compound 32, 4-(5-(2-chloro-5-fluoropyridin-4-yl)-7H-pyrrolo[2,3-d]pyrimidin-4-yl)morpholine]
STK3; [1]
  IC50: > 5 µM
STK4
  IC50: 1 to 5 µM

## Fc1ccccc1-c1c[nH]c2ncnc(N3CCOCC3)c12 [Compound 3, 4-(5-(2-Fluorophenyl)-7H-pyrrolo[2,3-d]pyrimidin-4-yl)morpholine]
STK3; [1]
  IC50: < 1 µM

## COc1cccc(CNc2ncnc3[nH]cc(-c4cccc(Cl)c4)c23)c1 [Compound 74, 5-(3-chlorophenyl)-N-(3-methoxybenzyl)-7H-pyrrolo[2,3-d]pyrimidin-4-amine]
STK3; [1]
  IC50: > 5 µM
STK4
  IC50: > 5 µM

## CN1CCC(Nc2ncnc3[nH]cc(-c4cccc(Cl)c4)c23)CC1 [Compound 65, 5-(3-chlorophenyl)-N-(1-methylpiperidin-4-yl)-7H-pyrrolo[2,3-d]pyrimidin-4-amine]
STK3; [1]
  IC50: 1 to 5 µM
STK4
  IC50: 1 to 5 µM

## Clc1cccc(-c2coc3nccc(N4CCOCC4)c23)c1 [Compound 94, 3-(3-chlorophenyl)-4-morpholinofuro[2,3-b]pyridine]
STK3; [1]
  IC50: > 5 µM
STK4
  IC50: > 5 µM

## COc1cccc(-c2c[nH]c3ncnc(N4CCOCC4)c23)c1 [Compound 8, 4-(5-(3-Methoxyphenyl)-7H-pyrrolo[2,3-d]pyrimidin-4-yl)morpholine]
STK3; [1]
  IC50: < 1 µM

## Clc1ccc(-c2c[nH]c3ncnc(N4CCOCC4)c23)cc1Cl [Compound 30, 4-(5-(3,4-dichlorophenyl)-7H-pyrrolo[2,3-d]pyrimidin-4-yl)morpholine]
STK3; [1]
  IC50: 1 to 5 µM
STK4
  IC50: 1 to 5 µM

## CC1CCN(c2ncnc3[nH]cc(-c4cccc(Cl)c4)c23)CC1 [Compound 109, 5-(3-chlorophenyl)-4-(4-methylpiperidin-1-yl)-7H-pyrrolo[2,3-d]pyrimidine]
STK3; [1]
  IC50: < 1 µM
STK4
  IC50: < 1 µM

## Clc1cccc(-c2c[nH]c3ncnc(NCc4cnc[nH]4)c23)c1 [Compound 76, N-((1H-imidazol-5-yl)methyl)-5-(3-chlorophenyl)-7H-pyrrolo[2,3-d]pyrimidin-4-amine]
STK3; [1]
  IC50: > 5 µM
STK4
  IC50: > 5 µM

## COc1ccccc1CNc1ncnc2[nH]cc(-c3cccc(Cl)c3)c12 [Compound 68, 5-(3-chlorophenyl)-N-(2-methoxybenzyl)-7H-pyrrolo[2,3-d]pyrimidin-4-amine]
STK3; [1]
  IC50: 1 to 5 µM
STK4
  IC50: 1 to 5 µM

## CC(CN)CNc1ncnc2[nH]cc(-c3cccc(Cl)c3)c12 (stereo not shown) [Compound 127, N^1-(5-(3-chlorophenyl)-7H-pyrrolo[2,3-d]pyrimidin-4-yl)-2-methylpropane-1,3-diamine]
STK3; [1]
  IC50: < 1 µM
STK4
  IC50: < 1 µM

## Clc1cccc(-c2c[nH]c3ncnc(NCc4ccncc4)c23)c1 [Compound 71, 5-(3-chlorophenyl)-N-(pyridin-4-ylmethyl)-7H-pyrrolo[2,3-d]pyrimidin-4-amine]
STK3; [1]
  IC50: > 5 µM
STK4
  IC50: 1 to 5 µM

## Clc1cccc(-c2c[nH]c3ncnc(NCCN4CCOCC4)c23)c1 [Compound 66, 5-(3-chlorophenyl)-N-(2-morpholinoethyl)-7H-pyrrolo[2,3-d]pyrimidin-4-amine]
STK3; [1]
  IC50: 1 to 5 µM
STK4
  IC50: 1 to 5 µM

## COCC(C)CNc1ncnc2[nH]cc(-c3cccc(Cl)c3)c12 (stereo not shown) [Compound 123, 5-(3-chlorophenyl)-N-(3-methoxy-2-methylpropyl)-7H-pyrrolo[2,3-d]pyrimidin-4-amine]
STK3; [1]
  IC50: < 1 µM
STK4
  IC50: < 1 µM

## CC1(O)CCN(c2ncnc3[nH]cc(-c4cccc(Cl)c4)c23)CC1 [Compound 103, 1-(5-(3-chlorophenyl)-7H-pyrrolo[2,3-d]pyrimidin-4-yl)-4-methylpiperidin-4-ol]
STK3; [1]
  IC50: < 1 µM

## Clc1cccc(-c2c[nH]c3ncnc(NCc4nccs4)c23)c1 [Compound 79, 5-(3-chlorophenyl)-N-(thiazol-2-ylmethyl)-7H-pyrrolo[2,3-d]pyrimidin-4-amine]
STK3; [1]
  IC50: > 5 µM
STK4
  IC50: > 5 µM

## Clc1cccc(-c2c[nH]c3ncnc(NCC4CCOCC4)c23)c1 [Compound 61, 5-(3-chlorophenyl)-N-((tetrahydro-2H-pyran-4-yl)methyl)-7H-pyrrolo[2,3-d]pyrimidin-4-amine]
STK3; [1]
  IC50: 1 to 5 µM
STK4
  IC50: < 1 µM

## Fc1c(-c2c[nH]c3ncnc(N4CCOCC4)c23)ccnc1Cl [Compound 33, 4-(5-(2-chloro-3-fluoropyridin-4-yl)-7H-pyrrolo[2,3-d]pyrimidin-4-yl)morpholine]
STK3; [1]
  IC50: > 5 µM
STK4
  IC50: > 5 µM

## Clc1cccc(-c2csc3ncnc(N4CCOCC4)c23)c1 [Compound 20, 4-(5-(3-Chlorophenyl)thieno[2,3-d]pyrimidin-4-yl)morpholine]
STK3; [1]
  IC50: > 5 µM

## FC(F)(F)Oc1cccc(-c2c[nH]c3ncnc(N4CCOCC4)c23)c1 [Compound 27, 4-(5-(3-(trifluoromethoxy)phenyl)-7H-pyrrolo[2,3-d]pyrimidin-4-yl)morpholine]
STK3; [1]
  IC50: 1 to 5 µM
STK4
  IC50: 1 to 5 µM

## COc1ccccc1-c1c[nH]c2ncnc(N3CCOCC3)c12 [Compound 4, 4-(5-(2-Methoxyphenyl)-7H-pyrrolo[2,3-d]pyrimidin-4-yl)morpholine]
STK3; [1]
  IC50: < 1 µM

## Cc1ccc(CNc2ncnc3[nH]cc(-c4cccc(Cl)c4)c23)cc1C [Compound 85, 5-(3-chlorophenyl)-N-(3,4-dimethylbenzyl)-7H-pyrrolo[2,3-d]pyrimidin-4-amine]
STK3; [1]
  IC50: > 5 µM
STK4
  IC50: > 5 µM

## COC(=O)c1ccc(Nc2nc(N3CCOCC3)c3c(-c4cccc(Cl)c4)c[nH]c3n2)cc1 [Compound 99, methyl 4-((5-(3-chlorophenyl)-4-morpholino-7H-pyrrolo[2,3-d]pyrimidin-2-yl)amino)benzoate]
STK3; [1]
  IC50: > 5 µM
STK4
  IC50: > 5 µM

## c1nc(N2CCOCC2)c2c(-c3ccoc3)c[nH]c2n1 [Compound 14, 4-(5-(Furan-3-yl)-7H-pyrrolo[2,3-d]pyrimidin-4-yl)morpholine]
STK3; [1]
  IC50: < 1 µM

## FC(F)(F)Oc1ccc(-c2c[nH]c3ncnc(N4CCOCC4)c23)cc1 [Compound 28, 4-(5-(4-(trifluoromethoxy)phenyl)-7H-pyrrolo[2,3-d]pyrimidin-4-yl)morpholine]
STK3; [1]
  IC50: 1 to 5 µM
STK4
  IC50: 1 to 5 µM

## Clc1cccc(-c2c[nH]c3ncnc(NCCC(c4ccccc4)c4ccccc4)c23)c1 [Compound 88, 5-(3-chlorophenyl)-N-(3,3-diphenylpropyl)-7H-pyrrolo[2,3-d]pyrimidin-4-amine]
STK3; [1]
  IC50: > 5 µM
STK4
  IC50: > 5 µM

## CC(=O)c1ccc(-c2c[nH]c3ncnc(N4CCOCC4)c23)cc1 [Compound 29, 1-(4-(4-morpholino-7H-pyrrolo[2,3-d]pyrimidin-5-yl)phenyl)ethan-1-one]
STK3; [1]
  IC50: > 5 µM
STK4
  IC50: 1 to 5 µM

## Clc1cccc(-c2c[nH]c3ncnc(N4CCN(c5ccccc5)CC4)c23)c1 [Compound 89, 5-(3-chlorophenyl)-4-(4-phenylpiperazin-1-yl)-7H-pyrrolo[2,3-d]pyrimidine]
STK3; [1]
  IC50: > 5 µM
STK4
  IC50: > 5 µM

## Clc1ncccc1-c1c[nH]c2ncnc(N3CCOCC3)c12 [Compound 34, 4-(5-(2-chloropyridin-3-yl)-7H-pyrrolo[2,3-d]pyrimidin-4-yl)morpholine]
STK3; [1]
  IC50: > 5 µM
STK4
  IC50: > 5 µM

## CN1CCN(c2ncnc3[nH]cc(-c4cccc(Cl)c4)c23)CC1 [Compound 47, 5-(3-chlorophenyl)-4-(4-methylpiperazin-1-yl)-7H-pyrrolo[2,3-d]pyrimidine]
STK3; [1]
  IC50: 1 to 5 µM
STK4
  IC50: 1 to 5 µM

## COCCNc1ncnc2[nH]cc(-c3cccc(Cl)c3)c12 [Compound 58, 5-(3-chlorophenyl)-N-(2-methoxyethyl)-7H-pyrrolo[2,3-d]pyrimidin-4-amine]
STK3; [1]
  IC50: > 5 µM
STK4
  IC50: > 5 µM

## CNCC(C)CNc1ncnc2[nH]cc(-c3cccc(Cl)c3)c12 (stereo not shown) [Compound 131, N^1-(5-(3-chlorophenyl)-7H-pyrrolo[2,3-d]pyrimidin-4-yl)-N^3,2-dimethylpropane-1,3-diamine]
STK3; [1]
  IC50: > 5 µM
STK4
  IC50: > 5 µM

## Fc1ccc(-c2c[nH]c3ncnc(N4CCOCC4)c23)cc1 [Compound 10, 4-(5-(4-Fluorophenyl)-7H-pyrrolo[2,3-d]pyrimidin-4-yl)morpholine]
STK3; [1]
  IC50: < 1 µM

## c1coc(-c2c[nH]c3ncnc(N4CCOCC4)c23)c1 [Compound 13, 4-(5-(Furan-2-yl)-7H-pyrrolo[2,3-d]pyrimidin-4-yl)morpholine]
STK3; [1]
  IC50: < 1 µM

## c1csc(-c2c[nH]c3ncnc(N4CCOCC4)c23)c1 [Compound 12, 4-(5-(Thiophen-2-yl)-7H-pyrrolo[2,3-d]pyrimidin-4-yl)morpholine]
STK3; [1]
  IC50: < 1 µM

## Cc1ccc(-c2c[nH]c3ncnc(N4CCOCC4)c23)cc1 [Compound 9, 4-(5-(p-tolyl)-7H-pyrrolo[2,3-d]pyrimidin-4-yl)morpholine]
STK3
  IC50: 1 to 5 µM

## Clc1cccc(-c2c[nH]c3ncnc(NCC4CC4)c23)c1 [Compound 18, 5-(3-Chlorophenyl)-N-(cyclopropylmethyl)-7H-pyrrolo[2,3-d]pyrimidin-4-amine]
STK3; [1]
  IC50: < 1 µM

## Clc1cccc(-c2c[nH]c3ccnc(N4CCOCC4)c23)c1 [Compound 22, 4-(3-(3-Chlorophenyl)-1H-pyrrolo[3,2-c]pyridin-4-yl)morpholin]
STK3; [1]
  IC50: > 5 µM

## CN(C)c1ncnc2[nH]cc(-c3cccc(Cl)c3)c12 [Compound 17, 5-(3-Chlorophenyl)-N,N-dimethyl-7H-pyrrolo[2,3-d]pyrimidin-4-amine]
STK3; [1]
  IC50: < 1 µM

## CCN(CCO)c1ncnc2[nH]cc(-c3cccc(Cl)c3)c12 [Compound 114, 2-((5-(3-chlorophenyl)-7H-pyrrolo[2,3-d]pyrimidin-4-yl)(ethyl)amino)ethan-1-ol]
STK3; [1]
  IC50: < 1 µM

## Clc1cccc(-c2coc3ncnc(N4CCOCC4)c23)c1 [Compound 21, 5-(3-Chlorophenyl)-4-morpholinofuro[2,3-d]pyrimidine]
STK3; [1]
  IC50: > 5 µM
